In patent US11406625B2, “Method of treating amyotrophic lateral sclerosis with pridopidine” (PRILENIA NEUROTHERAPEUTICS LTD., priority 2017, dated 2022):
Where two headings read alike, the source gives them in different places.

How the values were obtained:
[1] = tested on: ALS patients; conditions: cited from earlier work
[2] = tested on: motor neuron axons co-cultured with primary myocytes; conditions: myocytes carrying SOD1G93A mutation, 1 μM
Description: Primary muscle cells from presymptomatic (P60) WT or SOD1G93A mice were cultured. On day 6 primary skeletal myoblasts were cultured in the distal compartment of a MFC. About six days later (day 12), ventral spinal cord explants from WT or SOD1G93A E12.5 mouse embryos that express HB9-GFP (a specific motor neuron marker) were plated in the proximal compartment, followed by application of pridopidine or vehicle to both compartments. Pridopidine was refreshed every other day. Two days post explant plating (day 14), motor axon growth and degeneration were evaluated using live imaging on a spinning disc confocal system. Axonal growth was tracked by imaging every 10 min for 8 hrs. Experiments were repeated three times.

[3] = tested on: human subjects afflicted with ALS; conditions: periodic oral administration
[4] = tested on: SOD1G93A mice; conditions: 30 mg/kg daily s.c. for 11 weeks
Description: Presymptomatic SOD1G93A mice (5 weeks of age) and WT controls were treated with either saline, 3 or 30 mg/kg pridopidine, by daily s.c. (subcutaneous) administration for 11 weeks (until 16 weeks of age). At the end of the experiment, lumbar spinal cords (L1-L6) were extracted, fixed, and embedded for cryosectioning.

[5] = tested on: SOD1G93A mice and WT controls; conditions: for increase in the muscle fiber diameter: Gastrocnemius, 30 mg/kg s.c. daily
Description: NMJ disruption and the subsequent skeletal muscle wasting are two main pathologies of ALS. Effect of pridopidine on muscle fiber atrophy and preservation of NMJs was evaluated in-vivo. Presymptomatic SOD1G93A mice and WT controls (5 weeks old) were treated with either saline, or pridopidine 3 or 30 mg/kg, by daily s.c. administration for 11 weeks. The Gastrocnemius muscles from vehicle or pridopidine-treated (30 mg/kg s.c.) mice were extracted from the SOD1G93A and WT mice at age 16 weeks. Muscle cross-sections were stained with Hematoxylin & Eosin (H& E), and the mean muscle fiber diameter was quantified for each group (FIG. 10a). NMJ preservation was evaluated by confocal imaging of co-localizing pre (NFH+Synapsin-I (green)- and post-synaptic (AchR (BTX; red) markers and counting the number of fully innervated NMJs in gastrocnemius muscles (FIG. 11a).

[6] = tested on: motor neurons (MNs) from spinal cord explants; experiment: Axonal transport assay of Qdot-BDNF in microfluidic chamber; assay type: cell-based, mice; conditions: for velocity of BDNF axonal transport: S1R−/− (S1R KO) MNs
Source text: Healthy motor neurons (MN) extend axons over long distances and through varying extracellular microenvironments to form synapses with muscles. The ability of the neuron to maintain this specialized morphology depends on cytoskeletal elements and continuous transport of proteins and organelles to and from the cell body. Cytoskeletal alterations are a major pathway implicated in the pathogenesis of ALS affecting axonal transport, growth and neuromuscular junction (NMJ) function (Eykens and Robberecht, 2015). Alterations in axonal transport are one of the first cellular processes that occur in neurodegenerative disease, including ALS. Axonal transport was evaluated using an in vitro compartmentalized system of microfluidic chambers (MFC) that separates neuronal cell bodies from their axons and synapses, enabling the study of retrograde/anterograde transport by specific monitoring and manipulation of cellular microenvironments (FIG. 1b: Zahavi 2015; Ionescu 2016).
Quantum-Dot labeled BDNF (Qdot BDNF) is retrogradely transported in axons of motor neurons grown from spinal cord explants in a microfluidic chamber (MFC). A MFC was used to analyze Qdot BDNF axonal transport. Axonal transport of BDNF in the SOD1 model (SOD1G93A) for ALS has been studied (Bilsland 2010; Perlson 2009; De Vos 2007). The effect of pridopidine on transport of Qdot BDNF along the axons of motor neurons was assessed in spinal cord explants from E12.5 SOD1 G93A and WT littermate mice (LM). Experimental workflow for the axonal transport assay (from left to right, FIG. 1a): SOD1G93A or wild Type (LM) spinal cord explants were plated in the MFC. At about 5 days post plating, axons began to cross over into the distal compartment. On day 6 post plating, an amount of pridopidine was added to both compartments. On day 7, Qdot-BDNF was added to the distal compartment and axonal transport was imaged using a high-resolution spinning-disk confocal microscope. Schematic illustration of microfluidic chamber system (FIG. 1b): Explants planted in the proximal compartment extend axons to the distal compartment, where Qdot-BDNF is applied exclusively prior to visualization.
Spinning disk confocal microscopy was used to track Qdot BDNF along the axons of motor neuron explant cultures. Time lapse images of Qdot-BDNF axonal transport as acquired at 60× magnification (FIG. 1c). Arrowheads point to a single Qdot-BDNF particle that is retrogradely transported (left) towards the cell body. Scale bar: 10 μm. […] Scale bars: horizontal 10 μm: vertical 100 seconds (FIG. 1c).
. Six independent biological repeats, from 6 different cultures were tested so that from each culture and explant with neurons/glia ˜250 BDNF particles were followed along the axons in the grooves. Velocity refers to the movement of a single BDNF particle. The experiment was repeated with MNs from mice in which sigma 1 receptor was genetically deleted (S1R KO or S1R−/−) (Langa, 2003). Ventral spinal cord sections from S1R−/− mice embryos were cultured and plated in the MFC as described above, and the axonal transport of Qdot-BDNF was analyzed.
SOD1G93 and S1R−/− explants with or without pridopidine were compared to littermate controls (LM).
Qdot-BDNF particle tracking was performed on Bitplane Imaris, using the semi-automated spot tracking function. […]; stop duration: speed<0.1 μm/sec for 3 frames. Data were then exported to MATLAB for further analysis of particle transport including Instantaneous Velocities (FIG. 2a) from 6 independent cultures, and Stop count (FIG. 2b).

[7] = tested on: S1R; conditions: by activation of the S1R (Ryskamp 2017); cited from earlier work
[8] = tested on: MN-myocyte co-culture
Description: Synapse disruption is the earliest cellular compartment disrupted in ALS. To test the ability of pridopidine to affect synapse function in an ALS model, cultures from Experiment 2 were grown for approximately four additional days (day 18), when axons extend into the distal compartment and generate NMJs.
Scale bar: 201 μm. […] To evaluate NMJ function, movies of muscle contraction were acquired at a frame rate of 30 frames per second for 1000 frames (FIG. 5b).
Briefly, contractile activity of muscles in the distal compartment of the MFC, which were overlapped by at least one axon was examined. Muscles were categorized into two groups: ‘Contracting’ or ‘Non-contracting’, depending on their motile activity during the movie. The motility of muscles was validated by generating intensity-over-time plots for each muscle (FIG. 5b). The number of contracting muscle fibers per chamber was divided by the total number of muscle fibers analyzed in the same chamber, yielding the percentage of contracting myotubes as an output for NMJ activity.

[9] = tested on: ERK; conditions: 30 minutes
Description: The ERK pathway promotes numerous cellular functions including proliferation and differentiation. […] Primary MN cultures at 2 DIV were starved overnight in neurotrophin- and serum-free medium (PNB). The following day, cultures were treated for 30 minutes with pridopidine or with BDNF as a positive control.

[10] = tested on: rat striatum; conditions: transcriptomic analysis; cited from earlier work
[11] = tested on: neuroblastoma cell line; conditions: S1R-dependent (Geva 2016); cited from earlier work

For `CC1=NN(c2ccccc2)C(=O)C1` [edaravone], which physical decline [1] is on record?
Its physical decline is “slows physical decline”.

Which “axonal growth: number of grooves with axons crossing into muscle compartment” value [2] does the source give for `CCCN1CCC(c2cccc(S(C)(=O)=O)c2)CC1` [pridopidine, 4-(3-(Methylsulfonyl)phenyl)-1-propylpiperidine] here?
The value was “increased number of axons crossing into the distal compartment”.

And the “symptoms of ALS in human subjects” value [3]?
Its value is “provides a clinically meaningful advantage in reducing the symptoms of ALS”.

And the “reduction of number of mutant SOD1 aggregates, gray matter” value ([4]; spinal cord gray matter)?
Its value is about 50%.

What about the “reduction of number of mutant SOD1 aggregates, white matter” value ([4]; spinal cord white matter) of the same compound?
The value was about 50%.

And the “loss of NMJs” value ([5]; SOD1G93A mice compared to WT, gastrocnemius, pridopidine treated)?
The value was about 20%.

And the “increase in the muscle fiber diameter” value ([5]; SOD1G93A mice)?
Its value is about 4 μm.

And the “increase in the muscle fiber diameter” value ([5]; WT mice)?
The value was about 5 μm.

What about the “velocity of BDNF axonal transport” value ([6]; 0.1 μM) of the same compound?
Its value is “not able to recover these defects”.

And the “velocity of BDNF axonal transport” value ([6]; 1 μM)?
The value was “not able to recover these defects”.

And the “axonal transport parameters of Qdot-BDNF” value ([6]; S1R−/− MNs, any of the concentrations tested)?
The value was “not responsive to pridopidine”.

And the “instantaneous velocity of Qdot-BDNF particles” value (shortened to “instantaneous velocity”) ([6]; SOD1G93A MNs, 0.1 μM)?
The value was “accelerated the instantaneous velocities”.

And the “particle stop count (number of counted stops of Qdot-BDNF per second)” value ([6]; SOD1G93A MNs, 0.1 μM)?
Its value is “reduced the number of pauses during axonal transport”.

What about the “instantaneous velocity” value ([6]; SOD1G93A MNs, 1 μM) of the same compound?
The value was “accelerated the instantaneous velocities”.

What about the “particle stop count (number of counted stops of Qdot-BDNF per second)” value ([6]; SOD1G93A MNs, 1 μM) of the same compound?
Its value is “reduced the number of pauses during axonal transport”.

What about the “particle stop count (number of counted stops of Qdot-BDNF per second)” value ([6]; WT MNs, 0.1 μM) of the same compound?
The value was “reduced the number of pauses during axonal transport”.

And the “instantaneous velocity” value ([6]; WT MNs, 0.1 μM, overnight incubation)?
The value was “accelerated the instantaneous velocities”.

What about the “spine impairment and aberrant calcium signaling” value [7] of the same compound?
The value was “rescue spine impairment and aberrant calcium signaling”.

And the “percentage of contracting myocytes (neuromuscular activity)” value ([8]; S1R−/− MNs co-cultures, 0.1μM)?
Its value is “did not restore the neuromuscular activity”.

And the “percentage of contracting myocytes” value ([8]; S1R−/− MNs co-cultures, 1 μM)?
The value was “significantly lower than the percentage of contracting myocytes in untreated and treated WT cultures”.

And the “percentage of contracting myocytes” value ([8]; SOD1G93A myocytes co-culture, 0.1μM)?
The value was “increases the percentage of contracting myocytes and restores neuromuscular activity to WT levels”.

What about the “percentage of contracting myocytes” value ([8]; SOD1G93A myocytes co-culture, 1μM) of the same compound?
Its value is “increases the percentage of contracting myocytes and restores neuromuscular activity to WT levels”.

And the “innervation rate of muscles” value ([8]; muscles carrying SOD1 mutation, 1 μM)?
The value was “increases innervation rate of muscles carrying SOD1 mutation to near WT levels”.

What about the “activation of ERK (pERK)” value ([9]; S1R−/− MN cultures, 0.1 μM and 1 μM) of the same compound?
The value was “but not in S1R−/− MN cultures”.

And the “increase in pERK (pERK/ERK ratio)” value ([9]; SOD1G93A MNs, 0.1 μM)?
Its value is about 2.9 fold.

And the “increase in pERK (pERK/ERK ratio)” value ([9]; SOD1G93A MNs, 1 μM)?
Its value is about 8.5 fold.

What about the “increase in pERK (pERK/ERK ratio)” value ([9]; WT MNs, 0.1 μM) of the same compound?
Its value is about 3.5 fold.

And the “increase in pERK (pERK/ERK ratio)” value ([9]; WT MNs, 1 μM)?
Its value is about 4 fold.

And the “expression of BDNF, D1R, GR and Akt/PI3K pathways” value [10]?
Its value is “activates expression”.

And the “secretion of BDNF” value [11]?
Its value is “enhance secretion of the neuroprotective brain-derived neurotrophic factor (BDNF)”.

Which results are given for `Nc1nc2ccc(OC(F)(F)F)cc2s1` [riluzole, reference compound]?
instantaneous velocity of Qdot-BDNF particles ([6]; SOD1G93A MNs, 100l M (printed)): did not affect the instantaneous velocities; instantaneous velocity of Qdot-BDNF particles ([6]; SOD1G93A MNs, 251M (printed)): did not affect the instantaneous velocities; rate of progression of the disease [1]: slows the rate of progression of the disease
